How the values were obtained:
Type in all cases: in vivo
broilers [1] = experiment: Effects of the series of salts of isopropoxy-phenylguanidine on production performance of broilers; conditions: 50 ppm in feed, 30 days; for Average daily weight gain / Average feed conversion ratio / Survival rate (%): 1-day-old broilers; for effect on production performance compared with hydrochloride: broilers
Procedure: One thousand and five hundred (1500) 1-day-old broilers were divided into 15 groups and each group with 100 broilers. Different types of salts of isopropoxy-phenylguanidine were added to the same basic diets. The broilers were free feeding and drinking and continued feeding for 30 days, then to collect statistics of the production performance and the survival rate of broilers in each group.

[2] = tested on: Duroc×Landrace×Large White piglets; experiment: Effects of the salts of isopropoxy-phenylguanidine in a feed for pigs; conditions: 100 ppm in feed; for Average daily weight gain / Feed conversion ratio: piglets aged 28 days; for effect on production performance compared with hydrochloride: pigs, 28 days
Procedure: One hundred and twenty (120) Duroc×Landrace×Large White piglets aged 28 days with similar body weight were randomly divided into 6 groups, each with 20 pigs. Different types of salts of isopropoxy-phenylguanidine were added to the feeds respectively in accordance with Table 3. The pigs were free feeding and drinking during the test period of 28 days.

Cherry Valley ducks = experiment: Effects of the salts of isopropoxy-phenylguanidine in a feed for ducks; conditions: 50 ppm in feed, 28 days; for Average daily weight gain / Feed conversion ratio: ducks aged 1 day; for effect on production performance compared with hydrochloride: ducks
Procedure: Six hundred (600) Cherry Valley ducks aged 1 day were randomly divided into 6 groups, each with 100 ducks. Different types of salts of isopropoxy-phenylguanidine were added to the feed according to Table 4. The ducks were free feeding and drinking during the test period of 28 days.

broilers [3] = experiment: Effects of different concentrations of isopropoxy-phenylguanidine methanesulfonate on production performance of broilers
Procedure: Eight hundred (800) broilers aged 1 day were divided into 8 groups and each group with 100 broilers. Different concentrations of isopropoxy-phenylguanidine methanesulfonate were added to the same basic diets. The broilers were free feeding and drinking and continued feeding for 30 days, then to collect statistics of the production performance and the survival rate of broilers in each group.

[4] = broilers, 5 ppm in feed, 30 days
[5] = broilers, 10 ppm in feed, 30 days
[6] = broilers, 20 ppm in feed, 30 days
[7] = broilers, 50 ppm in feed, 30 days
[8] = broilers, 100 ppm in feed, 30 days
[9] = broilers, 200 ppm in feed, 30 days
[10] = broilers, 500 ppm in feed, 30 days

`CC(C)Oc1ccc(C=NNC(=N)NN=Cc2ccc(OC(C)C)cc2)cc1.O=C(O)/C=C/C(=O)O` [isopropoxy-phenylguanidine fumarate, 2,2′-bis[[4-(isopropoxy)phenyl]methylene]-diaminoguanidine fumarate] was tested, and the “Average daily weight gain” value (broilers [1]) was 44.1 g, the “Average feed conversion ratio” value (broilers [1]) was 2.136 and the “Survival rate (%)” value (broilers [1]) was 99%.
`CC(=O)O.CC(C)Oc1ccc(C=NNC(=N)NN=Cc2ccc(OC(C)C)cc2)cc1` [isopropoxy-phenylguanidine acetate, 2,2′-bis[[4-(isopropoxy)phenyl]methylene]-diaminoguanidine acetate] was tested, and the “Average daily weight gain” value (broilers [1]) was 43.2 g, the “Average feed conversion ratio” value (broilers [1]) was 2.129 and the “Survival rate (%)” value (broilers [1]) was 99%.
In the case of `CC(C)Oc1ccc(C=NNC(=N)NN=Cc2ccc(OC(C)C)cc2)cc1.O=S(=O)(O)CCO` [2,2′-bis[[4-(isopropoxy)phenyl]methylene]-diaminoguanidine 2-hydroxyethylsulfonate], the “Average daily weight gain” value [2] is reported as 537 g, the Feed conversion ratio [2] is reported as 1.697 and the “effect on production performance compared with hydrochloride” value (“effect … compared with hydrochloride” below) [2] is reported as “better than hydrochloride”. The “Average daily weight gain” value (Cherry Valley ducks) was 67.9 g, the Feed conversion ratio (Cherry Valley ducks) was 1.835 and the “effect … compared with hydrochloride” value (Cherry Valley ducks) was “better than hydrochloride”. The “Average daily weight gain” value (broilers [1]) was 49.1 g, the “Average feed conversion ratio” value (broilers [1]) was 1.987 and the “Survival rate (%)” value (broilers [1]) was 100%. For the same compound, the “effect … compared with hydrochloride” value (broilers [1]) was “better than hydrochloride”.
With `CC(C)Oc1ccc(C=NNC(=N)NN=Cc2ccc(OC(C)C)cc2)cc1.O=C(O)c1ccccc1` [isopropoxy-phenylguanidine benzoate, 2,2′-bis[[4-(isopropoxy)phenyl]methylene]-diaminoguanidine benzoate] the “Average daily weight gain” value (broilers [1]) was 44.7 g, the “Average feed conversion ratio” value (broilers [1]) was 2.126 and the “Survival rate (%)” value (broilers [1]) was 100%.
With `CC(C)Oc1ccc(C=NNC(=N)NN=Cc2ccc(OC(C)C)cc2)cc1.O=C(O)CC(O)(CC(=O)O)C(=O)O` [isopropoxy-phenylguanidine citrate, 2,2′-bis[[4-(isopropoxy)phenyl]methylene]-diaminoguanidine citrate] the “Average daily weight gain” value [2] was 491 g, the Feed conversion ratio [2] was 1.803 and the “Average daily weight gain” value (broilers [1]) was 44.5 g. For the same compound, the “Average feed conversion ratio” value (broilers [1]) was 2.125 and the “Survival rate (%)” value (broilers [1]) was 100%.
For `CC(C)Oc1ccc(C=NNC(=N)NN=Cc2ccc(OC(C)C)cc2)cc1.O=C(O)C(=O)O` [isopropoxy-phenylguanidine oxalate, 2,2′-bis[[4-(isopropoxy)phenyl]methylene]-diaminoguanidine oxalate], the “Average daily weight gain” value (broilers [1]) was 43.1 g, the “Average feed conversion ratio” value (broilers [1]) was 2.145 and the “Survival rate (%)” value (broilers [1]) was 100%.
In the case of `CC(C)Oc1ccc(C=NNC(=N)NN=Cc2ccc(OC(C)C)cc2)cc1.O=C(O)CCC(=O)O` [isopropoxy-phenylguanidine succinate, 2,2′-bis[[4-(isopropoxy)phenyl]methylene]-diaminoguanidine succinate], the “Average daily weight gain” value (broilers [1]) is reported as 43.6 g, the “Average feed conversion ratio” value (broilers [1]) is reported as 2.143 and the “Survival rate (%)” value (broilers [1]) is reported as 100%.
With `CC(C)Oc1ccc(C=NNC(=N)NN=Cc2ccc(OC(C)C)cc2)cc1.O=P(O)(O)O` [isopropoxy-phenylguanidine phosphate, 2,2′-bis[[4-(isopropoxy)phenyl]methylene]-diaminoguanidine phosphate] the “Average daily weight gain” value (Cherry Valley ducks) was 61.2 g, the Feed conversion ratio (Cherry Valley ducks) was 1.926 and the “Average daily weight gain” value (broilers [1]) was 44.0 g. The “Average feed conversion ratio” value (broilers [1]) was 2.139 and the “Survival rate (%)” value (broilers [1]) was 100%.
For `CC(C)Oc1ccc(C=NNC(=N)NN=Cc2ccc(OC(C)C)cc2)cc1.CS(=O)(=O)O` [2,2′-bis[[4-(isopropoxy)phenyl]methylene]-diaminoguanidine methanesulfonate], the “Average daily weight gain” value [2] was 529 g, the Feed conversion ratio [2] was 1.713 and the “effect … compared with hydrochloride” value [2] was “better than hydrochloride”. The “Average daily weight gain” value (Cherry Valley ducks) was 68.4 g, the Feed conversion ratio (Cherry Valley ducks) was 1.831 and the “effect … compared with hydrochloride” value (Cherry Valley ducks) was “better than hydrochloride”. For the same compound, the “Average daily weight gain” value (broilers [1]) was 48.8 g, the “Average feed conversion ratio” value (broilers [1]) was 1.999 and the “Survival rate (%)” value (broilers [1]) was 100%. The “effect … compared with hydrochloride” value (broilers [1]) was “better than hydrochloride”, the “Daily weight gain” value (broilers [3]; [4]) was 42.3 g and the Feed conversion ratio (broilers [3]; [4]) was 2.150. For the same compound, the “Survival rate (%)” value (broilers [3]; [4]) was 100%, the “Daily weight gain” value (broilers [3]; [5]) was 43.4 g and the Feed conversion ratio (broilers [3]; [5]) was 2.138. The “Survival rate (%)” value (broilers [3]; [5]) was 100%, the “Daily weight gain” value (broilers [3]; [6]) was 44.5 g and the Feed conversion ratio (broilers [3]; [6]) was 2.119. For the same compound, the “Survival rate (%)” value (broilers [3]; [6]) was 100%, the “Daily weight gain” value (broilers [3]; [7]) was 48.9 g and the Feed conversion ratio (broilers [3]; [7]) was 2.087. The “Survival rate (%)” value (broilers [3]; [7]) was 100%, the “Daily weight gain” value (broilers [3]; [8]) was 49.6 g and the Feed conversion ratio (broilers [3]; [8]) was 2.076. The “Survival rate (%)” value (broilers [3]; [8]) was 100%, the “Daily weight gain” value (broilers [3]; [9]) was 49.2 g and the Feed conversion ratio (broilers [3]; [9]) was 2.071. The “Survival rate (%)” value (broilers [3]; [9]) was 100%, the “Daily weight gain” value (broilers [3]; [10]) was 49.5 g and the Feed conversion ratio (broilers [3]; [10]) was 2.073. For the same compound, the “Survival rate (%)” value (broilers [3]; [10]) was 100%, the “effect on production performance of broilers” value (broilers [3]; different concentrations (5-500 ppm) in feed, 30 days) was “significantly improve the production performance” and the “negative impacts on the production performance” value (broilers [3]; high concentrations in feed, broilers) was “no negative impacts”.
For `CC(C)Oc1ccc(C=NNC(=N)NN=Cc2ccc(OC(C)C)cc2)cc1.O=C(O)/C=C\C(=O)O` [isopropoxy-phenylguanidine maleate, 2,2′-bis[[4-(isopropoxy)phenyl]methylene]-diaminoguanidine maleate], the “Average daily weight gain” value (broilers [1]) was 44.1 g, the “Average feed conversion ratio” value (broilers [1]) was 2.137 and the “Survival rate (%)” value (broilers [1]) was 100%.
`CC(C)Oc1ccc(C=NNC(=N)NN=Cc2ccc(OC(C)C)cc2)cc1.CC(O)C(=O)O` [isopropoxy-phenylguanidine lactate, 2,2′-bis[[4-(isopropoxy)phenyl]methylene]-diaminoguanidine DL-lactate] was tested, and the “Average daily weight gain” value [2] was 535 g, the Feed conversion ratio [2] was 1.701 and the “effect … compared with hydrochloride” value [2] was “better than hydrochloride”. The “Average daily weight gain” value (Cherry Valley ducks) was 67.8 g, the Feed conversion ratio (Cherry Valley ducks) was 1.827 and the “effect … compared with hydrochloride” value (Cherry Valley ducks) was “better than hydrochloride”. For the same compound, the “Average daily weight gain” value (broilers [1]) was 47.9 g, the “Average feed conversion ratio” value (broilers [1]) was 2.006 and the “Survival rate (%)” value (broilers [1]) was 100%. For the same compound, the “effect … compared with hydrochloride” value (broilers [1]) was “better than hydrochloride”.
For `CC(C)Oc1ccc(C=NNC(=N)NN=Cc2ccc(OC(C)C)cc2)cc1.Cl` [isopropoxy-phenylguanidine hydrochloride, 2,2′-bis[[4-(isopropoxy)phenyl]methylene]-diaminoguanidine hydrochloride, reference compound], the “Average daily weight gain” value [2] was 512 g, the Feed conversion ratio [2] was 1.754 and the “Average daily weight gain” value (Cherry Valley ducks) was 65.3 g. The Feed conversion ratio (Cherry Valley ducks) was 1.874, the “Average daily weight gain” value (broilers [1]) was 46.6 g and the “Average feed conversion ratio” value (broilers [1]) was 2.087. For the same compound, the “Survival rate (%)” value (broilers [1]) was 100%.
For `CC(C)Oc1ccc(C=NNC(=N)NN=Cc2ccc(OC(C)C)cc2)cc1.O=S(=O)(O)O` [isopropoxy-phenylguanidine sulfate, 2,2′-bis[[4-(isopropoxy)phenyl]methylene]-diaminoguanidine sulfate], the “Average daily weight gain” value (broilers [1]) was 43.7 g, the “Average feed conversion ratio” value (broilers [1]) was 2.131 and the “Survival rate (%)” value (broilers [1]) was 100%.
With `CC(C)Oc1ccc(C=NNC(=N)NN=Cc2ccc(OC(C)C)cc2)cc1.O=C(O)C(O)C(O)C(=O)O` [isopropoxy-phenylguanidine tartrate, 2,2′-bis[[4-(isopropoxy)phenyl]methylene]-diaminoguanidine tartrate] the “Average daily weight gain” value (broilers [1]) was 43.9 g, the “Average feed conversion ratio” value (broilers [1]) was 2.131 and the “Survival rate (%)” value (broilers [1]) was 98%.
